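Protocol summary: plate cells (96-well), add compound at 5 concentrations, incubate 48 h, interpolate endpoints linearly. TGI marks complete inhibition of growth.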
Experiments:
Assay in all cases: NCI tumour cell line growth inhibition, 48 h
NCI-H23 lung = system: NCI-H23 lung
T-47D breast = system: T-47D breast
HS 578T breast = system: HS 578T breast
SW-620 colon = system: SW-620 colon
RPMI-8226 leukemia = system: RPMI-8226 leukemia
OVCAR-3 ovarian = system: OVCAR-3 ovarian
BT-549 breast = system: BT-549 breast
786-0 renal = system: 786-0 renal
SK-MEL-5 melanoma = system: SK-MEL-5 melanoma
UO-31 renal = system: UO-31 renal
LOX IMVI melanoma = system: LOX IMVI melanoma
ACHN renal = system: ACHN renal
MALME-3M melanoma = system: MALME-3M melanoma
OVCAR-8 ovarian = system: OVCAR-8 ovarian
UACC-257 melanoma = system: UACC-257 melanoma
SR leukemia = system: SR leukemia
MDA-MB-231 breast = system: MDA-MB-231 breast
CCRF-CEM leukemia = system: CCRF-CEM leukemia
HCT-116 colon = system: HCT-116 colon
K-562 leukemia = system: K-562 leukemia
MDA-MB-435 = system: MDA-MB-435
U251 CNS = system: U251 CNS
SK-MEL-28 melanoma = system: SK-MEL-28 melanoma
MDA-N = system: MDA-N
NCI-H522 lung = system: NCI-H522 lung
OVCAR-5 ovarian = system: OVCAR-5 ovarian
SK-MEL-2 melanoma = system: SK-MEL-2 melanoma
SF-268 CNS = system: SF-268 CNS
EKVX NSCLC = system: EKVX NSCLC
RXF 393 renal = system: RXF 393 renal
SNB-19 CNS = system: SNB-19 CNS
HOP-92 NSCLC = system: HOP-92 NSCLC
MCF7 breast = system: MCF7 breast
SF-295 CNS = system: SF-295 CNS
HCT-15 colon = system: HCT-15 colon
SK-OV-3 ovarian = system: SK-OV-3 ovarian
NCI-H226 lung = system: NCI-H226 lung
UACC-62 melanoma = system: UACC-62 melanoma
SN12C renal = system: SN12C renal
CAKI-1 renal = system: CAKI-1 renal
HCC-2998 colon = system: HCC-2998 colon
NCI/ADR-RES ovarian = system: NCI/ADR-RES ovarian
HOP-62 NSCLC = system: HOP-62 NSCLC
IGROV1 ovarian = system: IGROV1 ovarian
OVCAR-4 ovarian = system: OVCAR-4 ovarian
M14 melanoma = system: M14 melanoma
SNB-75 CNS = system: SNB-75 CNS
SF-539 CNS = system: SF-539 CNS
TK-10 renal = system: TK-10 renal
DU-145 prostate = system: DU-145 prostate
COLO 205 colon = system: COLO 205 colon
MOLT-4 leukemia = system: MOLT-4 leukemia
HT29 colon = system: HT29 colon
A498 renal = system: A498 renal
A549 NSCLC = system: A549 NSCLC
HL-60(TB) leukemia = system: HL-60(TB) leukemia
KM12 colon = system: KM12 colon
PC-3 prostate = system: PC-3 prostate

SMILES: COc1ccc(N2C(N)=C(C#N)C(C#N)(C#N)C2c2cccc([N+](=O)[O-])c2)cc1 (stereo not drawn)
- TGI (NCI-H23 lung): 30.8 µM
- TGI (T-47D breast): 28 µM
- TGI (HS 578T breast): 54.6 µM
- TGI (SW-620 colon): 26 µM
- TGI (RPMI-8226 leukemia): 42.5 µM
- TGI (OVCAR-3 ovarian): 30.1 µM
- TGI (BT-549 breast): 32.3 µM
- TGI (786-0 renal): 29.1 µM
- TGI (SK-MEL-5 melanoma): 27.4 µM
- TGI (UO-31 renal): 31.3 µM
- TGI (LOX IMVI melanoma): 27.6 µM
- TGI (ACHN renal): 27.4 µM
- TGI (MALME-3M melanoma): 16 µM
- TGI (OVCAR-8 ovarian): 32.8 µM
- TGI (UACC-257 melanoma): 27.6 µM
- TGI (SR leukemia): > 66 µM
- TGI (MDA-MB-231 breast): 29.1 µM
- TGI (CCRF-CEM leukemia): > 24.6 µM
- TGI (HCT-116 colon): 23.8 µM
- TGI (K-562 leukemia): 14.7 µM
- TGI (MDA-MB-435): 31.9 µM
- TGI (U251 CNS): 31.7 µM
- TGI (SK-MEL-28 melanoma): 23.6 µM
- TGI (MDA-N): 31.5 µM
- TGI (NCI-H522 lung): 20.7 µM
- TGI (OVCAR-5 ovarian): 34.5 µM
- TGI (SK-MEL-2 melanoma): 33.2 µM
- TGI (SF-268 CNS): 44 µM
- TGI (EKVX NSCLC): 39.7 µM
- TGI (RXF 393 renal): 23.6 µM
- TGI (SNB-19 CNS): 32.5 µM
- TGI (HOP-92 NSCLC): 26.2 µM
- TGI (MCF7 breast): 40.2 µM
- TGI (SF-295 CNS): 39.5 µM
- TGI (HCT-15 colon): 30.3 µM
- TGI (SK-OV-3 ovarian): 38.9 µM
- TGI (NCI-H226 lung): 35.4 µM
- TGI (UACC-62 melanoma): 30.1 µM
- TGI (SN12C renal): 30.8 µM
- TGI (CAKI-1 renal): 23.4 µM
- TGI (HCC-2998 colon): 31.8 µM
- TGI (NCI/ADR-RES ovarian): 43.2 µM
- TGI (HOP-62 NSCLC): 30.9 µM
- TGI (IGROV1 ovarian): 29.7 µM
- TGI (OVCAR-4 ovarian): 32 µM
- TGI (M14 melanoma): 35.6 µM
- TGI (SNB-75 CNS): 35.1 µM
- TGI (SF-539 CNS): 28.9 µM
- TGI (TK-10 renal): 30.9 µM
- TGI (DU-145 prostate): 31.7 µM
- TGI (COLO 205 colon): 24 µM
- TGI (MOLT-4 leukemia): 25.7 µM
- TGI (HT29 colon): 29.1 µM
- TGI (A498 renal): 29.9 µM
- TGI (A549 NSCLC): 34.2 µM
- TGI (HL-60(TB) leukemia): > 25.7 µM
- TGI (KM12 colon): 33.9 µM
- TGI (PC-3 prostate): 32.4 µM
